We go through twelve compounds from patent US10925965B2, “Protein formulations with increased stability” (Arecor Limited, priority 2010, dated 2021).

Read-outs that look alike come from different tables or passages of the source.

The conditions of series [1]: cited from earlier work.
In a further series the target is T1, uricase (Cyberlindnera jadinii, UniProt P78609).
T1 construct: purchased Sigma U0880
T1 sequence (P78609 1-303): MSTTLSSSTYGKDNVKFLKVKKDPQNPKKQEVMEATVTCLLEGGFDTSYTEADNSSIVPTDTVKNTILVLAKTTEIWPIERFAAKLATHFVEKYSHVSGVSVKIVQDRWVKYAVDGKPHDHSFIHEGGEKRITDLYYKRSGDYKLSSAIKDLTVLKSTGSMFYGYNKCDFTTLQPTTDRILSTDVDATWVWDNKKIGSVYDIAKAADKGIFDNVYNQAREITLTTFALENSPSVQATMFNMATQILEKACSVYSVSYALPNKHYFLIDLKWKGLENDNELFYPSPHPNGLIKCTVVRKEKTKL
Description: Stability of uricase at 60° C. (enzyme activity recovery, optical assay) with preservative and additives. In kind it is biochemical. Conditions: pH 8.0. The method, then: Uricase was obtained from Sigma (U0880). The enzyme was formulated at 100 μg/ml. Measurements of enzyme activity were performed on a 96-well plate using an optical assay: 10 μl of the formulation was mixed with […] (borate buffer 25 mM, pH 8.5) and 50 μL substrate (sodium urate 2 mM). The mixture was equilibrated at room temperature for about 5 min. After 5 min, the following reagents were added in this particular order to each sample (the first reagent must be added at exactly 5 min, the timing of the other reagents addition is less crucial): 50 μl of citrate/phosphate buffer (0.5 M. pH 4.0); 15 μL of TMB (3 mg/mL, dissolved in DMSO) then 15 μL of lactoperoxidase (1 mg/mL, dissolved in water). The resulting solution was mixed thoroughly and absorbance was read at 630 nm using a plate reader. Optical density was calibrated using a range of concentrations of a reference enzyme solution. All measurements were carried out in triplicates and average value was recorded. Stability of enzyme was found in the preliminary experiments to be optimal at pH around 8.0, with minimal effect of ionic strength on the stability. The preservation of the enzyme activity was studied in a background formulation containing 10 mM histidine and 300 mM 1,2-propanediol, adjusted to pH 8. […] The effect of the stabilizing excipients was studied by comparing the stability of uricase in the solution containing the preservative only with that in the solution containing both the preservative and the stabilizing component. The concentration of the additives tested was selected based on their solubility in aqueous solutions.

Series [2] has as its system horseradish peroxidase (HRP). Description: Stability of horseradish peroxidase (HRP) at 60° C. (enzyme activity recovery, optical assay) with preservative and additives. In kind it is biochemical. Here is the method: HRP was obtained from Sigma (P8250), The enzyme was formulated at 0.5 mg/ml. Measurements of enzyme activity were performed on a 96-well plate using an optical assay: 20 μl of the formulation was mixed with 180 μl enzyme diluent solution (1.82 mM ABTS, 28 mM hydrogen peroxide in 0.1M sodium phosphate buffer pH 7.0). The resulting solution was mixed thoroughly and absorbance was read at 630 nm using a plate reader after 5 min. Optical density was calibrated using a range of concentrations of a reference enzyme solution. All measurements were carried out in triplicates and average value was recorded. Stability of enzyme was found in the preliminary experiments to be optimal at pH around 7.0 and relatively independent of ionic strength. The preservation of the enzyme activity was studied in background formulations containing 10 mM TRIS and 1,2-propanediol (300 mM) at pH 7.0. With the exception of control solutions, the solutions contained m-cresol (30 mM). The effect of the stabilizing excipients was studied by comparing the stability of HRP in the solution containing the preservative only with that in the solution containing both the preservative and the stabilizing component. The concentration of the additives tested was selected based on their solubility in aqueous solutions.

Series [3] has as its target human growth hormone (hGH) (Homo sapiens, UniProt P01241). The series is described as follows: Formation of high molecular weight species (HMWS) in aqueous hGH solutions at 40° C., size-exclusion HPLC. It counts as physicochemical. Conditions: 10 mM benzoate anion, background solutions 1 and 2, 40° C. The method, then: Formation of high molecular weight species (HMWS) was followed in aqueous solutions of hGH (15 mg/mL) using the following size-exclusion HPLC method: The mobile phase was prepared by mixing 97 parts (v/v) of 63 mM sodium phosphate (pH 7.0) with 3 parts (v/v) of propan-2-ol. The mobile phase was filtered prior to its use. The liquid chromatograph (Agilent 1100 series) was equipped with a 214 nm detector, guard column and a 7.8×300 mm BioSep SEC-S2000 column. The flow rate was maintained at 0.6 ml/min. 15 μl of aqueous samples of hGH were injected. The percentage of HMS was expressed as the ratio of the total area of all peaks with shorter elution time than the monomeric form of hGH versus the total peak area, ignoring peaks corresponding the excipients. The hGH solutions were incubated at 40° C. and assessed for the presence of HMWS at specific timepoints. In addition, the samples were assessed by eye for signs of visible precipitation.

Sequence of human growth hormone (hGH) (P01241 27-217): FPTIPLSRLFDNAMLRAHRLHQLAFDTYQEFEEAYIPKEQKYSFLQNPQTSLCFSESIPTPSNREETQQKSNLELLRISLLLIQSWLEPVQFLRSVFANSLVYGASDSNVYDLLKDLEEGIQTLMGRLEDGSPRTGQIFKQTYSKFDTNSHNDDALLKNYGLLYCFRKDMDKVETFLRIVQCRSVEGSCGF

As to `O=C(O)c1cc(O)c(O)c(O)c1` [3,4,5-trihydroxybenzoic acid], the “pKa value(s) of carboxylate group(s)” value in series [1] (first or only value given) is recorded as 4.41. As to `O=C(O)C1CCCCC1` [Cyclohexane carboxylic acid, reference compound], the “Effect on stability of uricase at 60° C.” value on uricase was “increase in the destabilising effect”. With `O=C(O)/C=C\c1ccccc1` [cis-cinnamic acid], in series [1] (first or only value given), the “pKa value(s) of carboxylate group(s)” value was 3.89.

As for `Cc1cccc(O)c1` [m-Cresol], the “Effect on stability of HRP at 60° C.” value in series [2] (60° C., pH 7.0) is recorded as “slight impairment of stability”. Take `COc1cc(C(=O)O)ccc1O` [4-hydroxy-3-methoxybenzoic acid]: the “pKa value(s) of carboxylate group(s)” value in series [1] (first or only value given) is listed as 4.5.

On to “HRP: HRP obtained from Sigma (P8250), formulated at 0.5 mg/ml”, for which the “pH of optimal stability of enzyme” value in series [2] (preliminary experiments) is “around 7.0”. For `O=C(O)c1ccc2ccccc2c1` [2-naphthoic acid], the “pKa value(s) of carboxylate group(s)” value in series [1] (first or only value given) is 4.17.

For the compound `Oc1ccccc1` [Phenol], the “Effect on stability of uricase at 60° C.” value on uricase is listed as “impairment of stability”. Consider `O=C([O-])c1ccccc1.[K+]` [benzoate anion, potassium benzoate], for which the “Effect on rate of HMWS formation” value in series [3] is recorded as “lower rate of HMWS formation”.

As for `OCc1ccccc1` [Benzyl alcohol], at uricase, the “Effect on stability of uricase at 60° C.” value is reported as “impairment of stability”.

As to `O=C(O)Cc1c[nH]c2ccccc12` [indole-3-acetic acid], the “pKa value(s) of carboxylate group(s)” value in series [1] (first or only value given) is reported as 4.75.

With `O=C(O)c1ccccc1C(=O)O` [phthalic acid], the “pKa value(s) of carboxylate group(s)” value in series [1] (second value printed (second carboxylate group)) is given as 5.28.
